# Laboratory results taken from article PMC8443738, “Interplay between membrane active host defense peptides and heme modulates their assemblies and in vitro activity” (Scientific Reports, 2021).
# Where “and” joins values, the source holds several entries; their conditions need not be identical. Equal entries are not always repeated. Structures can show the parent of a compound that is named as a salt. Where two headings read alike, the source gives them in different places.
# Columns and labels:
# [1] = cited from earlier work
# Protocol: Based on CD spectral features, apparent dissociation constants in the 20–50 μM range could be estimated for the peptide-hemin interactions as a single dose of a molar equivalent of hemin (25 μM) was enough here to reach close-to-saturation levels for several peptides (Fig. 1). […] It should be noted that classical considerations on affinity determination might fail for the ...
# EBC-1 cells [2] = test: Cytostasis (viability) assay, Alamar Blue; assay type: cell-based, human; conditions: for live cell %: mean ± SEM; for dead cells: alone
# Protocol: EBC-1 (squamous cell carcinoma, metastatic, origin: bronchi, JCRB No: JCRB0820[85],[86], originally purchased from Thermo Fisher Scientific and provided by the National Institute of Oncology, Budapest, Hungary) cells were maintained as an adherent culture in DMEM medium (Lonza) containing 10% FBS (Gibco) and supplemented with 2 mM of L-glutamine (Lonza), 1% non-essential amino acids (Gibco), 1 mM sodium pyruvate (Sigma-Aldrich), 1% penicillin–streptomycin (10,000 units penicillin and 10 mg streptomycin/ml, Gibco), at 37 °C in a humidified atmosphere containing 5% CO2.
# For testing cytostatic effects, 3500 cells per well were plated in 96-well flat bottom tissue culture plates (Sarstedt, Nümbrecht, Germany) in complete DMEM medium. LL-37 stock solution was prepared in serum-free medium (SFM) at 200 µM, while heme compounds were dissolved first in 10 mM NaOH at 3 mM, sterile filtered, and diluted tenfold in SFM. Cells were incubated with the peptide, small molecules, or peptide-small molecule mixtures for 24 h. Then cells were washed three times with SFM and cultured further for 72 h in complete medium. Cytostatic activity was determined using the Alamar Blue assay, where 20 µl Alamar Blue (resazurin sodium salt, Sigma-Aldrich) solution (0.15 mg/ml, dissolved in PBS, pH 7.4) was added to each well. Following a 3 h incubation, fluorescence (λEx = 530/30 and λEm = 610/10 nm) was read using a Synergy H4 multi-mode microplate reader (BioTek, Winooski, VT, USA). Live cell percentage of treated cells was calculated compared to control cells treated with medium only. All measurements were performed in triplicates, and live cell % values together with SEM are presented.
# EBC-1 cells [3] = test: Cell morphology by bright field microscopy; assay type: cell-based, human; conditions: 3 h exposure; for cell morphology: 33 µM
# Protocol: To visualize cell morphology changes, microscopic images of EBC-1 cells were captured. EBC-1 cells were plated in a 96-well flat bottom tissue culture plate and treated with peptide, heme compounds, and their mixtures as described in the above section. Microscopic images of the adherent cells were taken after the first 3 h of the treatment using an Olympus CKX41 microscope (Hamburg, Germany, objective: 20×).
# [4] = Intrinsic Trp fluorescence quenching by hemin; assay type: binding; conditions: PBS, 25 °C
# Protocol: Spectra were collected using a Jobin Yvon Fluoromax-3 spectrofluorometer at 25 °C in PBS. Spectra were recorded three times, averaged, and corrected by subtracting an appropriate blank. The Trp fluorophore was excited at 295 nm, and emission was monitored from 305 to 400 nm. 2 µM peptide was titrated with subsequent addition of hemin (up to 20 μM) in the presence and absence of liposomes (100 µM total lipid).
# [5] = hemin-to-peptide ratio of 1:3; no lipid; cited from earlier work
# erythrocytes = conditions: cited from earlier work
# From the text: Based on our results on model membranes, and in vitro assays on the selected cell line above, further activity alterations of the AMPs upon complex formation with hemin may be speculated. First of all, AMP–heme interaction could result in reduced antimicrobial activity by lowering the active peptide concentration. This can be achieved either by sequestering the free available peptide fraction by heme not allowing membrane interaction or by precluding formation of the active membrane-bound conformation of the peptides in the hemin-complexed membrane-associated form. A further interesting point ...
# [6] = Dynamic light scattering of peptide-hemin assemblies; assay type: physicochemical; conditions: three-component systems: 25 µM peptide, 75 µM hemin, 635 µM lipid (PC or PC/PG), PBS, various mixing order
# Protocol: Particle size and size distribution of the peptide-small molecule mixtures were measured at 20 °C using a W130i dynamic light scattering device (DLS, Avid Nano Ltd., High Wycombe, UK) with a diode laser (660 nm) and a photodiode detector. Low volume disposable cuvettes with 1 cm path-length were used (UVette, Eppendorf Austria GmbH). Samples prepared for CD experiments were measured after completing the titration. The time-dependent autocorrelation function was measured for 10 s, repeated 10 times.
compound,measurement,setting,value
"LLGDFFRKSKEKIGKEFKRIVQRIKDFLRNLVPRTES [LL-37, the only human cathelicidin, a host defense peptide]",Kd,"[1]; calculated, read-out: Kd, interaction with hemin",20 to 36 µM
same,live cell percentage,"EBC-1 cells [2]; EBC-1, 17 µM LL-37 administered together with hemin or biliverdin",25–35%
same,live cell %,"EBC-1 cells [2]; EBC-1, 17 µM LL-37 alone, relative to untreated control, n = 3",4.7 ± 1.3% and ~ 5%
same,live cell %,"EBC-1 cells [2]; EBC-1, 17 µM LL-37 with biliverdin at 1:3 ratio, n = 3",34 ± 6%
same,live cell %,"EBC-1 cells [2]; EBC-1, 17 µM LL-37 with hemin at 1:1 peptide to hemin ratio, n = 3",36 ± 12%
same,live cell %,"EBC-1 cells [2]; EBC-1, 17 µM LL-37 with hemin at 1:3 ratio, n = 3",23 ± 6%
same,cells killed,"EBC-1 cells [2]; EBC-1, LL-37 at 17 µM, 24 h treatment + 72 h culture, Alamar Blue, n = 3",~ 90%
same,cells killed,"EBC-1 cells [2]; EBC-1, LL-37 at 50 µM, 24 h treatment + 72 h culture, Alamar Blue, n = 3",almost all cells
same,cytostatic effect,"EBC-1 cells [2]; EBC-1, LL-37 at ~5 µM, 24 h treatment + 72 h culture, Alamar Blue, n = 3",no significant effect
same,cell morphology alterations,EBC-1 cells [3]; 17 µM LL-37,"shrinkage, and membrane defects"
"C=CC1=C(C)/C(=C/C2=NC(=C\c3[nH]c(/C=C4\NC(=O)C(C)=C4C=C)c(C)c3CCC(=O)O)/C(CCC(=O)O)=C2C)NC1=O [biliverdin, biliverdin HCl]",toxicity,"EBC-1 cells [2]; EBC-1, up to 100 µM (Fig. S12)",No significant toxicity
same,cytostatic effect,"EBC-1 cells [2]; EBC-1, up to 100 µM, 24 h treatment + 72 h culture, Alamar Blue",No cytostatic effect
same,cell morphology,EBC-1 cells [3],Non-damaged cells
hemin,concentration with dose-dependent cytostatic effect,EBC-1 cells [2]; EBC-1 (Fig. S12),≥ 33 µM
same,dead cells,"EBC-1 cells [2]; EBC-1, 33 µM, 24 h treatment + 72 h culture, Alamar Blue",~ 20%
same,dead cells,"EBC-1 cells [2]; EBC-1, 100 µM, 24 h treatment + 72 h culture, Alamar Blue",~60%
same,concentration at which cytostatic,"EBC-1 cells [2]; EBC-1, compound alone, 24 h treatment + 72 h culture, Alamar Blue",> 10 µM
same,cell morphology,EBC-1 cells [3],Non-damaged cells
melittin,Kd,"[1]; read-out: binding strength, interaction with hemin",60 to 120 µM
same,Trp fluorescence quenching by hemin,[4]; 2 µM peptide with PC liposomes,complete signal loss
same,remaining Trp fluorescence intensity on hemin quenching,[5],5–10%
same,hemolytic effects,erythrocytes,strong
CM15,Trp fluorescence quenching by hemin,"[4]; 2 µM peptide, 10 µM hemin, no lipid",total signal loss
same,average particle size of aggregates (DLS),[6],≤ 1 µm
same,hemolytic effects,erythrocytes,moderate
